Measurements: patent US11051515B2, “3-acyl-benzamides and their use as herbicides” (Bayer Aktiengesellschaft, priority 2017, dated 2021)

Experiments:
[1] = test system: ABUTH; assay: Pre-emergence action against ABUTH; format: in vivo, Abutilon theophrasti; details: pre-emergence, dosage 320 g/ha, scored visually after 3 weeks vs untreated controls; for pest or weed control at 320 g/ha: Abutilon theophrasti, 504 h, read-out: Pre-emergence action against ABUTH (herbicidal activity)
Excerpt: (§1) Seeds of monocotyledonous and dicotyledonous weed plants and crop plants are laid out in sandy loam soil in wood-fiber pots and covered with soil. The compounds of the invention, formulated in the form of wettable powders (WP) or as emulsion concentrates (EC), are then applied to the surface of the covering soil in the form of an aqueous suspension or emulsion at a water application rate equating to […], with addition of 0.2% wetting agent. After the treatment, the pots are placed in a greenhouse and kept under good growth conditions for the trial plants. The damage to the test plants is scored visually after a test period of 3 weeks by comparison with untreated controls (herbicidal activity in percent (%): 100% activity=the plants have died, 0% activity=like control plants).

[2] = test system: CYPES; assay: Pre-emergence action against CYPES; format: in vivo, Cyperus esculentus; details: pre-emergence, dosage 320 g/ha, scored visually after 3 weeks vs untreated controls
Excerpt: as §1

[3] = test system: CYPES; assay: Post-emergence action against CYPES; format: in vivo, Cyperus esculentus; details: post-emergence, dosage 80 g/ha, visual assessment about 3 weeks after treatment vs untreated controls; for pest or weed control at 80 g/ha: Cyperus esculentus, 504 h, read-out: Post-emergence action against CYPES (herbicidal action in percent)
Procedure: (§2) Seeds of monocotyledonous and dicotyledonous weed and crop plants are laid out in sandy loam soil in wood-fiber pots, covered with soil and cultivated in a greenhouse under good growth conditions. 2 to 3 weeks after sowing, the test plants are treated at the one-leaf stage. The compounds of the invention, formulated in the form of wettable powders (WP) or as emulsion concentrates (EC), are then sprayed onto the green parts of the plants in the form of an aqueous suspension or emulsion at a water application rate equating to […], with addition of 0.2% wetting agent. After the test plants have been left to stand in the greenhouse under optimal growth conditions for about 3 weeks, the action of the preparations is assessed visually in comparison to untreated controls (herbicidal action in percent (%): 100% activity=the plants have died, 0% activity=like control plants). […] At the same time, inventive compounds leave Gramineae crops such as barley, wheat, rye, millet/Sorghum, corn or rice virtually undamaged when applied post-emergence, even at high active ingredient dosages. In addition, some substances are also harmless to dicotyledonous crops such as soya, cotton, oilseed rape, sugar beet or potatoes. Some of the compounds according to the invention have high selectivity and are therefore suitable for controlling unwanted vegetation in agricultural crops by the post-emergence method. The data of Tables B18 to B34 below illustrate, in an exemplary manner, the […] herbicidal action of the compounds according to the invention, the herbicidal activity being stated in percent.

[4] = test system: ECHCG; assay: Post-emergence action against ECHCG; format: in vivo, Echinochloa crus-galli; details: post-emergence, dosage 80 g/ha, visual assessment about 3 weeks after treatment vs untreated controls; for pest or weed control at 80 g/ha: Echinochloa crus-galli, 504 h, read-out: Post-emergence action against ECHCG (herbicidal action in percent)
Procedure: as §2

[5] = test system: ABUTH; assay: Post-emergence action against ABUTH; format: in vivo, Abutilon theophrasti; details: post-emergence, dosage 80 g/ha, visual assessment about 3 weeks after treatment vs untreated controls; for pest or weed control at 80 g/ha: Abutilon theophrasti, 504 h, read-out: Post-emergence action against ABUTH (herbicidal action in percent)
Procedure: as §2

[6] = test system: STEME; assay: Post-emergence action against STEME; format: in vivo, Stellaria media; details: post-emergence, dosage 80 g/ha; for pest or weed control at 80 g/ha: Stellaria media, 504 h
Procedure: as §2

[7] = test system: SETVI; assay: Pre-emergence action against SETVI; format: in vivo, Setaria viridis; details: pre-emergence, dosage 320 g/ha, scored visually after 3 weeks vs untreated controls; for pest or weed control at 320 g/ha: Setaria viridis, 504 h, read-out: SETVI (Table B8, pre-emergence herbicidal activity)
Excerpt: as §1

[8] = test system: STEME; assay: Pre-emergence action against STEME; format: in vivo, Stellaria media; details: Dosage 320 g/ha, pre-emergence; for pest or weed control at 320 g/ha: Stellaria media, 504 h
Excerpt: as §1

[9] = test system: ECHCG; assay: Pre-emergence action against ECHCG; format: in vivo, Echinochloa crus-galli; details: pre-emergence, dosage 320 g/ha, scored visually after 3 weeks vs untreated controls; for pest or weed control at 320 g/ha: Echinochloa crus-galli, 504 h, read-out: Pre-emergence action against ECHCG (herbicidal activity)
Excerpt: as §1

[10] = test system: VIOTR; assay: Post-emergence action against VIOTR; format: in vivo, Viola tricolor; details: post-emergence, dosage 80 g/ha; for pest or weed control at 80 g/ha: Viola tricolor, 504 h
Procedure: as §2

[11] = test system: MATIN; assay: Pre-emergence action against MATIN; format: in vivo, Matricaria inodora; details: Dosage 320 g/ha, pre-emergence; for pest or weed control at 320 g/ha: Tripleurospermum inodorum, 504 h
Excerpt: as §1

[12] = test system: PHBPU; assay: Post-emergence action against PHBPU; format: in vivo, Pharbitis purpurea; details: post-emergence, dosage 80 g/ha; for pest or weed control at 80 g/ha: Ipomoea purpurea, 504 h
Procedure: as §2

[13] = test system: SETVI; assay: Post-emergence action against SETVI; format: in vivo, Setaria viridis; details: post-emergence, dosage 80 g/ha, visual assessment about 3 weeks after treatment vs untreated controls; for pest or weed control at 80 g/ha: Setaria viridis, 504 h, read-out: Post-emergence action against SETVI (herbicidal action in percent)
Procedure: as §2

[14] = test system: AMARE; assay: Pre-emergence action against AMARE; format: in vivo, Amaranthus retroflexus; details: pre-emergence, dosage 320 g/ha, scored visually after 3 weeks vs untreated controls; for pest or weed control at 320 g/ha: Amaranthus retroflexus, 504 h, read-out: Pre-emergence action against AMARE (herbicidal activity)
Excerpt: as §1

[15] = test system: VERPE; assay: Pre-emergence action against VERPE; format: in vivo, Veronica persica; details: Dosage 320 g/ha, pre-emergence; for pest or weed control at 320 g/ha: Veronica persica, 504 h
Excerpt: as §1

[16] = test system: VIOTR; assay: Pre-emergence action against VIOTR; format: in vivo, Viola tricolor; details: Dosage 320 g/ha, pre-emergence; for pest or weed control at 320 g/ha: Viola tricolor, 504 h
Excerpt: as §1

[17] = test system: MATIN; assay: Post-emergence action against MATIN; format: in vivo, Matricaria inodora; details: post-emergence, dosage 80 g/ha, visual assessment about 3 weeks after treatment vs untreated controls; for pest or weed control at 80 g/ha: Tripleurospermum inodorum, 504 h, read-out: Post-emergence action against MATIN (herbicidal action in percent)
Procedure: as §2

[18] = test system: PHBPU; assay: Pre-emergence action against PHBPU; format: in vivo, Pharbitis purpurea; details: Dosage 320 g/ha, pre-emergence
Excerpt: as §1

[19] = test system: AMARE; assay: Post-emergence action against AMARE; format: in vivo, Amaranthus retroflexus; details: post-emergence, dosage 80 g/ha, visual assessment about 3 weeks after treatment vs untreated controls; for pest or weed control at 80 g/ha: Amaranthus retroflexus, 504 h, read-out: Post-emergence action against AMARE (herbicidal action in percent)
Procedure: as §2

[20] = test system: VERPE; assay: Post-emergence action against VERPE; format: in vivo, Veronica persica; details: dosage 80 g/ha; for pest or weed control at 80 g/ha: Veronica persica, 504 h
Procedure: as §2

[21] = test system: ALOMY; assay: Pre-emergence action against ALOMY; format: in vivo, Alopecurus myosuroides; details: dosage 320 g/ha, pre-emergence, scored visually after 3 weeks vs untreated controls, 100% = plants have died, 0% = like control plants
Excerpt: as §1

| Structure (SMILES) | Pre-emergence action against ABUTH (herbicidal activity) [1] [%] | Post-emergence action against CYPES (herbicidal action in percent) [3] [%] | Post-emergence action against ECHCG (herbicidal action in percent) [4] [%] | Post-emergence action against ABUTH (herbicidal action in percent) [5] [%] | pest or weed control at 320 g/ha [1] [%] | pest or weed control at 80 g/ha [3] [%] | pest or weed control at 80 g/ha [4] [%] | pest or weed control at 80 g/ha [5] [%] | pest or weed control at 80 g/ha [6] [%] | pest or weed control at 320 g/ha [8] [%] | pest or weed control at 320 g/ha [9] [%] | pest or weed control at 80 g/ha [10] [%] | pest or weed control at 320 g/ha [11] [%] | pest or weed control at 80 g/ha [12] [%] | pest or weed control at 80 g/ha [13] [%] | pest or weed control at 320 g/ha [14] [%] | pest or weed control at 320 g/ha [15] [%] | pest or weed control at 80 g/ha [17] [%] | pest or weed control at 80 g/ha [19] [%] | pest or weed control at 80 g/ha [20] [%] | also measured |
| --- | --- | --- | --- | --- | --- | --- | --- | --- | --- | --- | --- | --- | --- | --- | --- | --- | --- | --- | --- | --- | --- |
| CCCn1nnnc1NC(=O)c1ccc(C(F)(F)F)c(C(C)=O)c1C [3-14] | 100 | 90 | 100 | 90 | – | – | – | – | – | – | – | – | – | – | – | – | – | – | – | – | Pre-emergence action against CYPES (herbicidal activity) [2]: 80%; Post-emergence action against STEME [6]: 100; SETVI (Table B8, pre-emergence herbicidal activity) [7]: 100%; Pre-emergence action against STEME [8]: 100%; Pre-emergence action against ECHCG (herbicidal activity) [9]: 100%; Post-emergence action against VIOTR [10]: 100; Pre-emergence action against MATIN [11]: 100%; Post-emergence action against PHBPU [12]: 90; Post-emergence action against SETVI (herbicidal action in percent) [13]: 100%; Pre-emergence action against AMARE (herbicidal activity) [14]: 100%; Pre-emergence action against VERPE [15]: 100%; Pre-emergence action against VIOTR [16]: 100%; Post-emergence action against MATIN (herbicidal action in percent) [17]: 100%; Pre-emergence action against PHBPU [18]: 90%; Post-emergence action against AMARE (herbicidal action in percent) [19]: 100%; Post-emergence action against VERPE [20]: 80; Pre-emergence action against ALOMY (herbicidal activity in percent) [21]: 90% |
| CC(=O)c1c(C)ccc(C(=O)Nc2nnnn2C)c1Cl [1-134] | – | – | – | – | 90 | 90 | 90 | 80 | 100 | 90 | 90 | 100 | 100 | 90 | 80 | 100 | 90 | 100 | 90 | 100 | – |
| Cc1ccc(C(=O)Nc2nnnn2C)c(Cl)c1C(=O)C1CC1 [1-136] | – | – | – | – | – | 80 | – | – | 100 | 100 | – | 90 | 100 | 90 | – | 80 | 80 | 90 | 90 | 90 | – |
| CCCn1nnnc1NC(=O)c1ccc(C)c(C(C)=O)c1Cl [3-134] | 100 | 80 | 90 | 80 | – | – | – | – | – | – | – | – | – | – | – | – | – | – | – | – | Post-emergence action against STEME [6]: 100; Pre-emergence action against STEME [8]: 90%; Pre-emergence action against ECHCG (herbicidal activity) [9]: 100%; Post-emergence action against VIOTR [10]: 90; Pre-emergence action against MATIN [11]: 90%; Post-emergence action against PHBPU [12]: 90; Pre-emergence action against AMARE (herbicidal activity) [14]: 90%; Pre-emergence action against VERPE [15]: 80%; Pre-emergence action against VIOTR [16]: 100%; Post-emergence action against MATIN (herbicidal action in percent) [17]: 90%; Post-emergence action against AMARE (herbicidal action in percent) [19]: 90%; Post-emergence action against VERPE [20]: 90 |
| CC(C)C(=O)c1c(Cl)ccc(C(=O)Nc2nnnn2C)c1Cl [1-280] | – | – | – | – | 90 | 90 | 90 | 80 | 100 | 90 | 100 | 90 | 100 | 80 | 80 | 100 | 90 | 90 | 90 | 90 | pest or weed control at 320 g/ha ([2]; Cyperus esculentus, 504 h, read-out: Pre-emergence action against CYPES (herbicidal activity)): 100%; pest or weed control at 320 g/ha [7]: 90%; pest or weed control at 320 g/ha [16]: 100%; pest or weed control at 320 g/ha ([21]; Alopecurus myosuroides, 504 h, read-out: Pre-emergence action against ALOMY (herbicidal activity in percent)): 90% |
| Cn1nnnc1NC(=O)c1ccc(C(F)(F)F)c(C(=O)C(F)(F)F)c1Cl [1-162] | – | – | – | – | 100 | 80 | 90 | 100 | 100 | 100 | 100 | 100 | 80 | 100 | 80 | 90 | 80 | – | 100 | – | pest or weed control at 320 g/ha [7]: 100%; pest or weed control at 320 g/ha [16]: 100% |
